{"source": "ChEMBL document CHEMBL1131305", "about": "“1-[2(R)-(2-amino-2-methylpropionylamino)-3-(1H-indol-3-yl)propionyl]- 3-benzylpiperidine-3(S)-carboxylic acid ethyl ester (L-163,540): a potent, orally bioavailable, and short-duration growth hormone secretagogue” (J Med Chem, 1998)", "key": {"Rattus norvegicus": {"species_on_record": "Rattus norvegicus", "experiment": "Effective concentration for half-maximal release of growth hormone determined in the rat pituitary cell assay, normalized against standard L692,429 (60 nM).", "type": "functional", "settings": "Pituitary gland cell"}, "[1]": {"experiment": "Bioavailability in dogs at 3.8 mg/kg oral dose.", "type": "ADME, organism-based, Canis lupus familiaris", "settings": "dog, in vivo"}, "[2]": {"experiment": "Clearance rate at 5.5 mg/kg, iv, in rat", "type": "ADME, organism-based", "set-up": "dose 5.5 mg/kg", "settings": "in vivo"}, "[3]": {"experiment": "Clearance rate at 0.46 mg/kg, iv, in dogs", "type": "ADME, organism-based, Canis lupus familiaris", "set-up": "dose 0.46 mg/kg", "settings": "dog, in vivo"}, "[4]": {"experiment": "Maximum plasma concentration following oral administration of 3.8 mg/kg in Beagle dog", "type": "ADME, organism-based, Canis lupus familiaris", "set-up": "dose 3.8 mg/kg, route oral"}, "[5]": {"experiment": "Volume of distribution was determined in rat at 5.5 mg/kg, iv", "type": "ADME, organism-based", "set-up": "dose 5.5 mg/kg, route intravenous", "settings": "in vivo, read-out: Vdss"}, "[6]": {"experiment": "Bioavailability in rats at 26.3 mg/kg oral dose.", "type": "ADME, organism-based", "settings": "rat, in vivo"}, "[7]": {"experiment": "Volume of distribution was determined in dogs at 0.46 mg/kg, iv", "type": "ADME, organism-based, Canis lupus familiaris", "set-up": "dose 0.46 mg/kg, route intravenous", "settings": "dog, in vivo, read-out: Vdss"}, "[8]": {"experiment": "Half-life determined at 0.46 mg/kg, iv, in dogs", "type": "ADME, organism-based, Canis lupus familiaris", "set-up": "dose 0.46 mg/kg", "settings": "dog, in vivo"}, "[9]": {"experiment": "Maximum plasma concentration following oral administration of 26.3 mg/kg in rats", "type": "ADME, organism-based", "set-up": "dose 26.3 mg/kg, route oral", "settings": "rat"}, "[10]": {"experiment": "Half-life determined at 5.5 mg/kg, iv, in rat", "type": "ADME, organism-based", "set-up": "dose 5.5 mg/kg", "settings": "in vivo"}}}
{"smiles": "CCOC(=O)[C@@]1(Cc2ccccc2)CCCN(C(=O)[C@@H](Cc2c[nH]c3ccccc23)NC(=O)C(C)(C)N)C1", "values": [{"measurement": "EC50", "setting": "Rattus norvegicus", "value": 0.022, "unit": "µM"}]}
{"smiles": "CCOC(=O)[C@]1(Cc2ccccc2)CCCN(C(=O)[C@@H](CCCc2ccccc2)NC(=O)C(C)(C)N)C1", "values": [{"measurement": "EC50", "setting": "Rattus norvegicus", "value": 0.008, "unit": "µM"}]}
{"smiles": "CC(C)(N)C(=O)N[C@H](Cc1c[nH]c2ccccc12)C(=O)N1CCC[C@@](Cc2ccccc2)(C(=O)O)C1", "values": [{"measurement": "EC50", "setting": "Rattus norvegicus", "value": 0.19, "unit": "µM"}]}
{"smiles": "CCOC(=O)[C@]1(Cc2ccccc2)CCCN(C(=O)[C@@H](Cc2c[nH]c3ccccc23)NC(=O)C(C)N)C1", "note": "(stereo partly drawn)", "values": [{"measurement": "EC50", "setting": "Rattus norvegicus", "value": 0.006, "unit": "µM"}]}
{"smiles": "CCOC(=O)[C@]1(Cc2ccccc2)CCCCN(C(=O)[C@@H](Cc2c[nH]c3ccccc23)NC(=O)C(C)(C)N)C1", "values": [{"measurement": "EC50", "setting": "Rattus norvegicus", "value": "> 0.2", "unit": "µM"}]}
{"smiles": "CCOC(=O)[C@]1(Cc2ccccc2)CCCN(C(=O)[C@@H](Cc2c[nH]c3ccccc23)NC(=O)C(C)(C)N)C1", "values": [{"measurement": "bioavailability", "setting": "[1]", "value": 29, "unit": "%"}, {"measurement": "clearance", "setting": "[2]", "value": 12.4, "unit": "L/h/kg"}, {"measurement": "clearance", "setting": "[3]", "value": 1.38, "unit": "L/h/kg"}, {"measurement": "Cmax", "setting": "[4]", "value": 0.56, "unit": "µg/mL"}, {"measurement": "Vd", "setting": "[5]", "value": 2.7, "unit": "L/kg"}, {"measurement": "bioavailability", "setting": "[6]", "value": 12.1, "unit": "%"}, {"measurement": "Vd", "setting": "[7]", "value": 1.3, "unit": "L/kg"}, {"measurement": "half-life", "setting": "[8]", "value": 72, "unit": "min"}, {"measurement": "Cmax", "setting": "[9]", "value": 0.182, "unit": "µg/mL"}, {"measurement": "half-life", "setting": "[10]", "value": 24, "unit": "min"}]}
{"smiles": "CCNC(=O)[C@]1(Cc2ccccc2)CCCN(C(=O)[C@@H](Cc2c[nH]c3ccccc23)NC(=O)C(C)(C)N)C1", "values": [{"measurement": "EC50", "setting": "Rattus norvegicus", "value": 0.0008, "unit": "µM"}]}
{"smiles": "CCOC(=O)[C@]1(Cc2ccccc2)CCN(C(=O)[C@@H](Cc2c[nH]c3ccccc23)NC(=O)C(C)(C)N)C1", "values": [{"measurement": "EC50", "setting": "Rattus norvegicus", "value": "> 0.05", "unit": "µM"}]}
{"smiles": "CCOC(=O)[C@]1(Cc2ccccc2)CCCN(C(=O)[C@@H](COCc2ccccc2)NC(=O)C(C)(C)N)C1", "values": [{"measurement": "EC50", "setting": "Rattus norvegicus", "value": 0.02, "unit": "µM"}]}
